Laboratory results published in ChEMBL document CHEMBL4024798.

How the values were obtained:
[1] = Apparent permeability from apical to basolateral side in human Caco2 cells at 2 uM after 2 hrs by LC-MS/MS analysis; type: ADME, cell-based; conditions: caco-2, 2 h
[2] = Apparent permeability from basolateral to apical side in human Caco2 cells at 2 uM after 2 hrs by LC-MS/MS analysis; type: ADME, cell-based; conditions: caco-2, 2 h

## OC12CC3CC(C1)CC(NCc1cc(C4CC4)on1)(C3)C2
[1]
  Papp: 27.57 ×10⁻⁶ cm/s
[2]
  Papp: 28.33 ×10⁻⁶ cm/s
